Literature values as cited in PubChem BioAssay AID1259409 (Chemical Carcinogenesis Research Information System (CCRIS), 2018).

Test system: rodent chemically induced tumor inhibition, incidence and multiplicity
Assay: CCRIS tumor inhibitor studies
Details: Route [Inhibitor]: ORAL

Question: What does the source list for `CC1=C(/C=C/C(C)=C/C=C/C(C)=C/C(=O)Nc2ccc(O)cc2)C(C)(C)CCC1`?
Answer: tumour outcome (control, treated, inhibition, significance) (Carcinogen: 1,2-DIMETHYLHYDRAZINE, 540-73-8, Dose [Inhibitor]: 2.0 MMOL/KG DIET DAILY STARTING 12 D AFTER CARCINOGEN TREATMENT THROUGH ABOUT 8 MO AFTER CARCINOGEN DOSE (STUDY DURATION, Species: RAT, Strain/Sex: F344/MALE, Target Tissue: Type of Lesion: COLON: ADENOCARCINOMA, Dose [Carcinogen]: 150 MG/KG BW ONCE, Promoter: NONE USED): 10/39 (26%), 5/30 (17%), 35%, not significant; tumour outcome (control, treated, inhibition, significance) (Carcinogen: 1,2-DIMETHYLHYDRAZINE, 540-73-8, Dose [Inhibitor]: 2.0 MMOL/KG DIET DAILY STARTING 12 D AFTER CARCINOGEN TREATMENT THROUGH ABOUT 8 MO AFTER CARCINOGEN DOSE (STUDY DURATION, Species: RAT, Strain/Sex: F344/MALE, Target Tissue: Type of Lesion: COLON: ADENOMA, Dose [Carcinogen]: 150 MG/KG BW ONCE, Promoter: NONE USED): 23/39 (59%), 7/30 (23%), 61%, p<0.05; tumour outcome (control, treated, inhibition, significance) (Carcinogen: 4-(METHYLNITROSAMINO)-1-(3-PYRIDYL)-1-BUTANONE [64091-50-5], Dose [Inhibitor]: 2 MMOL/KG IN DIET FOR 17 WK BEGINNING 1 WK PRIOR TO FIRST CARCINOGEN DOSE (STUDY DURATION: 17 WK), Species: MOUSE, Strain/Sex: A/J/FEMALE, Target Tissue: Type of Lesion: LUNG: ADENOMA, Dose [Carcinogen]: 10 UMOL ONCE 1 WK POST FIRST INHIBITOR DOSE (STUDY DURATION: 17 WK), Promoter: NONE): 100%, 100%, 0%, not significant; tumour outcome (control, treated, inhibition, significance) (Carcinogen: 4-(METHYLNITROSAMINO)-1-(3-PYRIDYL)-1-BUTANONE [64091-50-5], Dose [Inhibitor]: 2 MMOL/KG IN DIET FOR 53 WK BEGINNING 1 WK PRIOR TO FIRST CARCINOGEN DOSE (STUDY DURATION: 53 WK), Species: MOUSE, Strain/Sex: A/J/FEMALE, Target Tissue: Type of Lesion: LUNG: ADENOMA OR ADENOCARCINOMA, Dose [Carcinogen]: 10 UMOL ONCE 1 WK POST FIRST INHIBITOR DOSE (STUDY DURATION: 53 WK), Promoter: NONE): 100%, 100%, 0%, not significant; tumour outcome (control, treated, inhibition, significance) (Carcinogen: 4-(METHYLNITROSAMINO)-1-(3-PYRIDYL)-1-BUTANONE [64091-50-5], Dose [Inhibitor]: 4 MMOL/KG IN DIET FOR 17 WK BEGINNING 1 WK PRIOR TO FIRST CARCINOGEN DOSE (STUDY DURATION: 17 WK), Species: MOUSE, Strain/Sex: A/J/FEMALE, Target Tissue: Type of Lesion: LUNG: ADENOMA, Dose [Carcinogen]: 10 UMOL ONCE 1 WK POST FIRST INHIBITOR DOSE (STUDY DURATION: 17 WK), Promoter: NONE): 100%, 100%, 0%, not significant; tumour outcome (control, treated, inhibition, significance) (Carcinogen: 4-(METHYLNITROSAMINO)-1-(3-PYRIDYL)-1-BUTANONE [64091-50-5], Dose [Inhibitor]: 4 MMOL/KG IN DIET FOR 53 WK BEGINNING 1 WK PRIOR TO FIRST CARCINOGEN DOSE (STUDY DURATION: 53 WK), Species: MOUSE, Strain/Sex: A/J/FEMALE, Target Tissue: Type of Lesion: LUNG: ADENOMA OR ADENOCARCINOMA, Dose [Carcinogen]: 10 UMOL ONCE 1 WK POST FIRST INHIBITOR DOSE (STUDY DURATION: 53 WK), Promoter: NONE): 100%, 93%, 7%, not significant; tumour outcome (control, treated, inhibition, significance) (Carcinogen: 7,12-DIMETHYLBENZ[A]ANTHRACENE, 57-97-6, Dose [Inhibitor]: 0, 1 MMOL/KG IN DIET FOR THE DURATION OF STUDY BEGINNING 1 WK PRIOR TO CARCINOGEN DOSE (STUDY DURATION: 105 WK), Species: RAT, Strain/Sex: SPRAGUE-DAWLEY/FEMALE, Target Tissue: Type of Lesion: MAMMARY GLAND: TUMOR, Dose [Carcinogen]: 15 MG IN 1 ML SESAME OIL ONCE, Promoter: NONE USED): 88%, 73%, 17%, not significant; tumour outcome (control, treated, inhibition, significance) (Carcinogen: 7,12-DIMETHYLBENZ[A]ANTHRACENE, 57-97-6, Dose [Inhibitor]: 0, 2 MMOL/KG IN DIET FOR THE DURATION OF STUDY BEGINNING 1 WK PRIOR TO CARCINOGEN DOSE (STUDY DURATION: 105 WK), Species: RAT, Strain/Sex: SPRAGUE-DAWLEY/FEMALE, Target Tissue: Type of Lesion: MAMMARY GLAND: TUMOR, Dose [Carcinogen]: 15 MG IN 1 ML SESAME OIL ONCE, Promoter: NONE USED): 88%, 33%, 63%, not significant; tumour outcome (control, treated, inhibition, significance) (Carcinogen: 7,12-DIMETHYLBENZ[A]ANTHRACENE, 57-97-6, Dose [Inhibitor]: 0, 2 MMOL/KG OF DIET FOR 15.5 WK BEGINNING 10 D PRIOR TO CARCINOGEN DOSE (STUDY DURATION: 17 WK), Species: RAT, Strain/Sex: SPRAGUE-DAWLEY/FEMALE, Target Tissue: Type of Lesion: MAMMARY GLAND: TUMOR, Dose [Carcinogen]: 15 MG IN 1 ML OF SESAME OIL ONCE AT 50 D OF AGE, Promoter: NONE USED): 92%, 58%, 37%, not calculated; tumour outcome (control, treated, inhibition, significance) (Carcinogen: 7,12-DIMETHYLBENZ[A]ANTHRACENE, 57-97-6, Dose [Inhibitor]: 0, 2 MMOL/KG OF DIET FOR 18.5 WK BEGINNING 10 D PRIOR TO CARCINOGEN DOSE (STUDY DURATION: 18.5 WK), Species: RAT, Strain/Sex: SPRAGUE-DAWLEY/FEMALE, Target Tissue: Type of Lesion: MAMMARY GLAND: TUMOR, Dose [Carcinogen]: 15 MG IN 1 ML OF SESAME OIL ONCE AT 50 D OF AGE, Promoter: NONE USED): 83%, 33%, 60%, not calculated; tumour outcome (control, treated, inhibition, significance) (Carcinogen: 7,12-DIMETHYLBENZ[A]ANTHRACENE, 57-97-6, Dose [Inhibitor]: 0, 2 MMOL/KG OF DIET FOR 20 D BEGINNING 10 D PRIOR TO CARCINOGEN DOSE (STUDY DURATION: 18.5 WK), Species: RAT, Strain/Sex: SPRAGUE-DAWLEY/FEMALE, Target Tissue: Type of Lesion: MAMMARY GLAND: TUMOR, Dose [Carcinogen]: 15 MG IN 1 ML OF SESAME OIL ONCE AT 50 D OF AGE, Promoter: NONE USED): 100%, 67%, 33%, not calculated; tumour outcome (control, treated, inhibition, significance) (Carcinogen: 7,12-DIMETHYLBENZ[A]ANTHRACENE, 57-97-6, Dose [Inhibitor]: 0.75 MMOL/KG OF DIET IN 25 ML OF THE VEHICLE (ETHANOL/TRICAPRYLIN 1:4 (VOL/VOL) PLUS 6% (WT/VOL) ALPHA-TOCOPHEROL) BEGIN, Species: RAT, Strain/Sex: SPRAGUE-DAWLEY/FEMALE, Target Tissue: Type of Lesion: MAMMARY GLAND: TUMOR, Dose [Carcinogen]: 75 MG/KG BW IN 1.0 ML SESAME OIL ONCE, Promoter: NONE USED): 70%, 65%, 7%, not significant
